Laboratory results reported in PubChem BioAssay AID330 (DTP/NCI, 2004).
Where “and” joins values, the source holds several entries; their conditions need not be identical. Equal values may be shown once. Inconclusive results and toxic doses are left out.

Test system: P388 leukemia ip, CD2F1 mice, survival T/C
Assay: NCI In Vivo Anticancer Drug Screen. Data for tumor model P388 Leukemia (intraperitoneal) in CD2F1 (CDF1) mice
Conditions: endpoint: median survival time, higher = longer survival
Procedure, shortened: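 Mice carrying the transplanted tumor received test compound or vehicle. Survival was recorded in each group, and the value is the treated-group measurement divided by that of the vehicle-treated control group.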

[1] = dose: 50.0 mg/kg/injection, schedule: Q01DX005 (ip), vehicle: saline with Tween-80
[2] = dose: 100.0 mg/kg/injection, schedule: Q01DX005 (ip), vehicle: saline with Tween-80
[3] = dose: 100.0 mg/kg/injection, schedule: Q01DX001 (ip), vehicle: saline with Tween-80
[4] = dose: 200.0 mg/kg/injection, schedule: Q01DX001 (ip), vehicle: saline with Tween-80
[5] = dose: 400.0 mg/kg/injection, schedule: Q01DX001 (ip), vehicle: saline with Tween-80
[6] = dose: 100.0 mg/kg/injection, schedule: Q04DX003 (ip), vehicle: saline with Tween-80
[7] = dose: 200.0 mg/kg/injection, schedule: Q04DX003 (ip), vehicle: saline with Tween-80
[8] = dose: 400.0 mg/kg/injection, schedule: Q04DX003 (ip), vehicle: saline with Tween-80
[9] = dose: 50.0 mg/kg/injection, schedule: Q01DX009 (ip), vehicle: Klucel (hydroxypropylcellulose) (HPC)
[10] = dose: 100.0 mg/kg/injection, schedule: Q01DX009 (ip), vehicle: Klucel (hydroxypropylcellulose) (HPC)
[11] = dose: 200.0 mg/kg/injection, schedule: Q01DX009 (ip), vehicle: Klucel (hydroxypropylcellulose) (HPC)
[12] = dose: 100.0 mg/kg/injection, schedule: Q01DX009 (ip), vehicle: saline with Tween-80
[13] = dose: 200.0 mg/kg/injection, schedule: Q01DX009 (ip), vehicle: saline with Tween-80
[14] = dose: 60.0 mg/kg/injection, schedule: Q01DX005 (ip), vehicle: saline with Tween-80
[15] = dose: 120.0 mg/kg/injection, schedule: Q01DX005 (ip), vehicle: saline with Tween-80
[16] = dose: 240.0 mg/kg/injection, schedule: Q01DX005 (ip), vehicle: saline with Tween-80
[17] = dose: 50.0 mg/kg/injection, schedule: Q01DX009 (ip), vehicle: saline
[18] = dose: 100.0 mg/kg/injection, schedule: Q01DX009 (ip), vehicle: saline
[19] = dose: 200.0 mg/kg/injection, schedule: Q01DX009 (ip), vehicle: saline
[20] = dose: 6.25 mg/kg/injection, schedule: Q01DX005 (ip), vehicle: saline with Tween-80
[21] = dose: 12.5 mg/kg/injection, schedule: Q01DX005 (ip), vehicle: saline with Tween-80

In the case of `O=C1OC(=O)c2ccc3c4c(ccc1c24)C(=O)OC3=O`, the T/C [1] was 104 % of control and the T/C [2] was 105 % of control.
For `O=C(NC(=S)c1ccc(Br)cc1)NS(=O)(=O)c1ccc(Cl)cc1`, the T/C [3] was 96 % of control, the T/C [4] was 92 % of control and the T/C [5] was 102 % of control.
With `O=S1(=O)CC2(N3CCOCC3)CCCCCC21` (configuration not stated) the T/C [6] was 103 % of control, the T/C [7] was 100 % of control and the T/C [8] was 100 % of control.
`CC(=O)Nc1ccc2c3c(cccc13)CC2` was tested, and the T/C [9] was 101 % of control, the T/C [10] was 106 % of control and the T/C [11] was 108 % of control.
`O=C(N=C1SC(=NC2CCCCC2)N1C1CCCCC1)c1ccccc1` was tested, and the T/C (dose: 100.0 mg/kg/injection, schedule: Q01DX001 (ip), vehicle: Klucel (hydroxypropylcellulose) (HPC)) was 95 % of control and the T/C (dose: 200.0 mg/kg/injection, schedule: Q01DX001 (ip), vehicle: Klucel (hydroxypropylcellulose) (HPC)) was 100 % of control.
In the case of `Cn1c(=O)c2[nH]c(-c3c[nH]c4ccccc34)nc2n(C)c1=O`, the T/C [6] was 89 % of control, the T/C [7] was 89 % of control and the T/C [8] was 86 % of control.
`O=C(O)c1ccc(CCCBr)cc1` was tested, and the T/C [12] was 105 % of control, the T/C [13] was 100 % of control and the T/C (dose: 400.0 mg/kg/injection, schedule: Q01DX009 (ip), vehicle: saline with Tween-80) was 97 % of control.
In the case of `COc1cc2c(cc1C(CC(=O)O)c1ccc3c(c1)OCO3)OCO2` (configuration not stated), the T/C [1] was 103 % of control, the T/C [2] was 105 % of control and the T/C (dose: 200.0 mg/kg/injection, schedule: Q01DX005 (ip), vehicle: saline with Tween-80) was 103 % of control.
In the case of `N#CSCc1c(Cl)cccc1Cl`, the T/C (dose: 25.0 mg/kg/injection, schedule: Q01DX009 (ip), vehicle: other) was 104 % of control, the T/C (dose: 50.0 mg/kg/injection, schedule: Q01DX009 (ip), vehicle: other) was 104 % of control and the T/C (dose: 100.0 mg/kg/injection, schedule: Q01DX009 (ip), vehicle: other) was 103 % of control. The T/C (dose: 200.0 mg/kg/injection, schedule: Q01DX009 (ip), vehicle: other) was 113 % of control.
`Cc1cc(O)cc2c1c(=O)c1ccccc1n2C` was tested, and the T/C [14] was 100 % of control, the T/C [15] was 100 % of control and the T/C [16] was 96 % of control.
`CCN(CC)CCOc1ccc(/C=C(\C)C(C)=O)cc1` was tested, and the T/C (dose: 50.0 mg/kg/injection, schedule: Q01DX005 (ip), vehicle: saline) was 94 % of control and the T/C (dose: 100.0 mg/kg/injection, schedule: Q01DX005 (ip), vehicle: saline) was 90 % of control.
`CN(Nc1ccnc(=O)[nH]1)c1ccccc1` was tested, and the T/C [14] was 105 % of control, the T/C [15] was 102 % of control and the T/C [16] was 93 % of control.
With `COc1ccc(OC)c(N=Cc2cccs2)c1` the T/C [17] was 90 % of control, the T/C [18] was 100 % of control and the T/C [19] was 92 % of control.
For `CCOn1nnc2c([N+](=O)[O-])cccc21`, the T/C [1] was 96 % of control and the T/C [2] was 92 % of control.
For `CCC1(CC)SC(C)(C)N(C=O)C1C(=O)O` (configuration not stated), the T/C (dose: 100.0 mg/kg/injection, schedule: Q04DX002 (ip), vehicle: saline with Tween-80) was 99 % of control, the T/C (dose: 200.0 mg/kg/injection, schedule: Q04DX002 (ip), vehicle: saline with Tween-80) was 104 % of control and the T/C (dose: 400.0 mg/kg/injection, schedule: Q04DX002 (ip), vehicle: saline with Tween-80) was 100 % of control.
For `CC1(C)OCC(N)(CO)CO1`, the T/C [17] was 107 % of control, the T/C [18] was 102 % of control and the T/C [19] was 98 % of control. For the same molecule, the T/C (dose: 400.0 mg/kg/injection, schedule: Q01DX009 (ip), vehicle: saline) was 98 % of control.
In the case of `CC[n+]1c(-c2ccccc2)c2cc(N)ccc2c2ccc(N)cc21`, the T/C (dose: 0.39 mg/kg/injection, schedule: Q04DX003 (ip), vehicle: saline) was 101 % of control, the T/C (dose: 0.39 mg/kg/injection, schedule: Q04DX003 (ip), vehicle: water) was 103 % of control and the T/C (dose: 0.78 mg/kg/injection, schedule: Q04DX003 (ip), vehicle: saline) was 100 % of control. The T/C (dose: 0.78 mg/kg/injection, schedule: Q04DX003 (ip), vehicle: water) was 104 % of control, the T/C (dose: 1.56 mg/kg/injection, schedule: Q01DX009 (ip), vehicle: saline) was 150 % of control and the T/C (dose: 1.56 mg/kg/injection, schedule: Q04DX003 (ip), vehicle: saline) was 106 % of control. For the same molecule, the T/C (dose: 1.56 mg/kg/injection, schedule: Q04DX003 (ip), vehicle: water) was 113 % of control, the T/C (dose: 3.13 mg/kg/injection, schedule: Q01DX009 (ip), vehicle: saline) was 153 % of control and the T/C (dose: 3.13 mg/kg/injection, schedule: Q01DX009 (ip), vehicle: water) was 161 % of control. For the same molecule, the T/C (dose: 3.13 mg/kg/injection, schedule: Q04DX003 (ip), vehicle: saline) was 114 % of control, the T/C (dose: 3.13 mg/kg/injection, schedule: Q04DX003 (ip), vehicle: water) was 123 % of control and the T/C (dose: 6.25 mg/kg/injection, schedule: Q01DX009 (ip), vehicle: saline) was 170 % of control. The T/C (dose: 18.0 mg/kg/injection, schedule: Q04DX003 (ip), vehicle: saline sonified) was 150 % of control, the T/C (dose: 25.0 mg/kg/injection, schedule: Q04DX003 (ip), vehicle: saline) was 117 % of control and the T/C (dose: 27.0 mg/kg/injection, schedule: Q04DX003 (ip), vehicle: saline sonified) was 109 % of control.
In the case of `Cc1c(Cl)cccc1N=Cc1cccs1`, the T/C [9] was 105 % of control, the T/C [10] was 105 % of control and the T/C [11] was 105 % of control.
For `O=C1CCCC(CCc2ccccc2)O1` (configuration not stated), the T/C [3] was 100 % of control, the T/C [4] was 101 % of control and the T/C [5] was 100 % of control.
`COc1cc2c(c(OC)c1OC)-c1ccc(OC)c(=O)cc1[C@@H](N(C)C(C)=O)CC2` was tested, and the T/C (dose: 0.31 mg/kg/injection, schedule: Q01DX009 (ip), vehicle: Klucel (hydroxypropylcellulose) (HPC)) was 157 % of control and 187 % of control and the T/C (dose: 0.62 mg/kg/injection, schedule: Q01DX009 (ip), vehicle: Klucel (hydroxypropylcellulose) (HPC)) was 181 % of control.
`CCCCS(=O)(=O)CSC#N` was tested, and the T/C (dose: 3.12 mg/kg/injection, schedule: Q01DX005 (ip), vehicle: saline with Tween-80) was 102 % of control, the T/C [20] was 105 % of control and the T/C [21] was 117 % of control.
For `CC(=N\O)/C(=N/O)c1ccccc1`, the T/C (dose: 50.0 mg/kg/injection, schedule: Q04DX003 (ip), vehicle: saline with Tween-80) was 106 % of control, the T/C [6] was 98 % of control and the T/C [7] was 98 % of control. The T/C [8] was 104 % of control.
With `C=C(CC(O)(C(F)(F)F)C(F)(F)F)CC(O)(C(F)(F)F)C(F)(F)F` the T/C (dose: 3.13 mg/kg/injection, schedule: Q01DX005 (ip), vehicle: saline with Tween-80) was 102 % of control, the T/C [20] was 104 % of control and the T/C (dose: 12.5 mg/kg/injection, schedule: Q01DX001 (ip), vehicle: saline with Tween-80) was 99 % of control. For the same molecule, the T/C [21] was 107 % of control and the T/C (dose: 25.0 mg/kg/injection, schedule: Q01DX001 (ip), vehicle: saline with Tween-80) was 99 % of control.
With `CCc1c(C#N)c(S)[nH]c(=S)c1C#N` the T/C (dose: 12.5 mg/kg/injection, schedule: Q01DX009 (ip), vehicle: saline) was 90 % of control, the T/C (dose: 25.0 mg/kg/injection, schedule: Q01DX009 (ip), vehicle: saline) was 100 % of control and the T/C [17] was 98 % of control and 102 % of control.
`CC(SC(C)C(=O)O)C(=O)O` (configuration not stated) was tested, and the T/C (dose: 100.0 mg/kg/injection, schedule: Q04DX002 (ip), vehicle: saline) was 97 % of control and the T/C (dose: 200.0 mg/kg/injection, schedule: Q04DX002 (ip), vehicle: saline) was 109 % of control.
For `CCOC(=O)c1c(C(=O)OCC)c2cccn2c2c1cnn2-c1ccccc1`, the T/C [14] was 99 % of control, the T/C [15] was 93 % of control and the T/C [16] was 91 % of control.
`O=C1CN=C(c2ccccn2)c2cc(Cl)ccc2N1CCO` was tested, and the T/C [12] was 100 % of control and the T/C [13] was 105 % of control.
With `c1nc2c3c4c(sc3ncn2n1)CCCC4` the T/C (dose: 50.0 mg/kg/injection, schedule: Q01DX005 (ip), vehicle: Klucel (hydroxypropylcellulose) (HPC)) was 98 % of control, the T/C (dose: 100.0 mg/kg/injection, schedule: Q01DX005 (ip), vehicle: Klucel (hydroxypropylcellulose) (HPC)) was 106 % of control and the T/C (dose: 200.0 mg/kg/injection, schedule: Q01DX005 (ip), vehicle: Klucel (hydroxypropylcellulose) (HPC)) was 91 % of control.
For `O=C(O)C1CCC(=O)N1Cc1ccccc1` (configuration not stated), the T/C [9] was 89 % of control, the T/C [10] was 100 % of control and the T/C [11] was 107 % of control.
